Where “and” joins values, the source holds several entries; their conditions need not be identical. Equal values may be shown once. Residues, ends and D or L forms follow the SMILES beside them. *: point of attachment. Cbz = O=C(OCc1ccccc1)*; OtBu = CC(C)(C)O*

The subject of assay [1] is C57BL/6 mice. The experiment in a line: Capsaicin-induced thermal hypersensitivity (Hargreaves). Particulars: Figure 3 B lower block (Vehicle vs PW 164), individual animals 1-20. Type of assay: in vivo, mouse. The text has this:
(§1) FGF13 is a neuronal gene ubiquitously transcribed in DRG neuronal subtypes ([43]–[46]). To investigate neuronal subtype enrichment of the FGF13 transcript, we examined a gene panel including FGF13, SCN9A, and several marker genes in mouse single-cell transcriptomic data (Supplemental Figure 10) ([43]–[46]). […] Critically, putative silent nociceptors marked by somatostatin (SST), and the nicotinic cholinergic receptor α-3 subunit (CHRNA3) contribute to development of inflammatory mechanical hyperalgesia ([47]). […] We next determined if PW164 modulation of the FGF13/Nav1.7 complex could suppress nociceptive behaviors in WT mice. We tested whether intraplantar (i.pl.) injection (5 μL) of PW164 altered hind paw withdrawal in response to low or high intensity von Frey filament (LVF or HVF, respectively) mechanical stimulation (Figure 3A). […] Next, we evaluated PW164’s effect on mechanical and thermal hindpaw sensitivity in capsaicin-induced nociceptive hypersensitivity models. […] Next, we performed in vivo target validation in WT mice that received an intrathecal (i.t.) injection in L5 of AAV2-shFGF13 (6 μL, viral titers 1 × 10^12 vector genomes (vg)/mL); a control group received an equal number of AAV2-shCTRL particles (Figure 3C).
(§2) Experiments were performed on 6- to 12-week-old male C57BL/6 mice (The Jackson Laboratory, Bar Harbor, ME) housed in the AAALAC-accredited facility at the University of Texas Medical Branch. Mice were group-housed with up to 5 mice per cage on a 12-to-12-hour light–dark cycle and had access to water and food ad libitum. All protocols were approved by the Institutional Animal Care and Use Committee (IACUC) at the University of Texas Medical Branch and in accordance with the National Institutes of Health (NIH) guidelines.
(§3) PW164 and ZL192 were dissolved in DMSO and saline in a ratio of 1:10. 0.1% capsaicin (10% ethanol, 10% Tween-20 in saline; Sigma-Aldrich). All the compounds were injected at the center of the hind paw. The control group received a DMSO-saline mixture. […]
(§4) AAV2 viral particles packaged by the University of North Carolina Gene Therapy Core Facility (viral titer ranging […]
Before intrathecal injections in the lumbar region, mice were maintained in an anesthetizing box with 2% isoflurane to induce unconsciousness. Six microliters of viral vector were gently injected into the CSF through a 30-gauge needle with a Hamilton syringe in the lumbar area between vertebrae L4 and L5 by gently gripping the iliac crest of the mouse and inserting the needle with an angle of 45°. The correct procedure was confirmed by the mouse’s tail reflexiv e flick. […]

Assay [2] concerns C57BL/6 mice. Description: Capsaicin-induced mechanical hypersensitivity (von Frey). In kind it is in vivo, mouse. Particulars: Cap + Bup 7 mg/mL. Details: LVF Mean / HVF Mean / MECHANICAL LVF / MECHANICAL HVF: unit not given here.
Excerpt: as §1, §2, §3
Bupivacaine was prepared from a 1:2 dilution with sterile 0.9% saline and locally injected in the center of the paw at 7 mg/ml.
as §4
Before intrathecal injections in the lumbar region, mice were maintained in an anesthetizing box with 2% isoflurane to induce unconsciousness. Six microliters of viral vector were gently injected into the CSF through a 30-gauge needle with a Hamilton syringe in the lumbar area between vertebrae L4 and L5 by gently gripping the iliac crest of the mouse and inserting the needle with an angle of 45°. The correct procedure was confirmed by the mouse’s tail reflexiv e flick.
(§5) Assessment of mechanical sensitivity
Mechanical sensitivity was assessed using von Frey filaments (VFF 0.1g and 1.0 g force) in mice that were either naïve or received intraplantar (i.p.) injection of capsaicin. VFFs were applied at the injection site (capsaicin or […]

Assay [3] relates to C57BL/6 mice. Description: Mechanical sensitivity (von Frey, LVF/HVF) after intraplantar injection, mice without capsaicin. In kind it is in vivo, mouse. On the set-up: key to LVF Mean / HVF Mean: % withdrawals from 10 consecutive von Frey stimulations. Particulars: Bup 7 mg/mL, without capsaicin. On the procedure: as §2, §3, §5
Mechanical sensitivity was assessed using von Frey filaments (VFF 0.1g and 1.0 g force) in mice that were either naïve or received intraplantar (i.p.) injection of capsaicin. VFFs were applied at the injection site (capsaicin or drug unilateral intraderma l injection at the center of the hind paw using a 30 -G needle). VFF of 1.0 g force, which evokes a 40–60% withdrawal response in the naïve condition, was used to detect hyperalgesia, and VFF of 0.1 g […]
mechanical sensitivity was expressed as % withdrawals from 10 consecutive stimulations. […]

The subject of assay [4] is FGF13 and Nav1.7 colocalization in hIPSC-derived sensory neurons. Description: Immunocytochemistry, FGF13 and Nav1.7 colocalization in RealDRG. In kind it is cell-based, human. The conditions noted are these: Capsaicin, N 39. On the procedure: After treatment, coverslips containing hIPSC-derived sensory neurons were fixed with 4% PFA/4% sucrose for 15 minutes, permeabilized for 5 minutes using 0.1% Triton X-100 in PBS and blocked with 10% Normal Goat Serum (ThermoFisher Scientific) for 30 minutes. Cells were stained using primary antibodies ms IgG1 Nav1.7 […]
Tubulin (Abcam, catalog # ab18207; 1:2000) overnight at 4∘C in 3% BSA. Isotype specific secondary antibodies ms IgG1 Alexa 568 (Life Technologies, catalog # A-21124; 1:200), ms IgG2a Alexa 647 (Life Technologies, […]
applied for 2 hours. After washing, cell membranes were labeled using CellBrite Cytoplasmic Membrane Dye (Biotium) according to manufacturer directions. After final washing, coverslips were mounted using ProLong Gold Antifade Mountant (ThermoFisher). hIPSC-derived sensory neurons were fixed at day 14 in buffered formalin (10 wt%/vol%, Fisher Scientific 23-305-510) for 10 minutes, permeabilized in DPBS plus Triton X-100 (0.2 vol%/vol%, MilliporeSigma, T8787-100ML), blocked in DPBS plus bovine serum albumin (1 wt%/vol%, MilliporeSigma A3059-100G) and Tween-20 (0.1 vol% MilliporeSigma P1379) for 2 hours, and incubated with primary antibodies overnight. Cultures were washed twice with blocking solution and incubated 1 hour with secondary antibodies. 4′,6-diamidino-2-phenylindole dilactate (DAPI, Thermo Fisher D3571) was added for 10 minutes before washing three times in DPBS. Antibodies used include: TUJ1 (1:250, MilliporeSigma MAB1637), […]
and Alexa Fluor 555 Donkey anti-Rabbit (1:500, Thermo Fisher Scientific A-31572). Negative controls included

Assay [5] deals with T1, FGF13 (protein used in surface plasmon resonance) (UniProt Q92913-2 1-192).
T1 construct: Fibroblast growth factor 13; also called fibroblast growth factor 13
T1 sequence (looked up): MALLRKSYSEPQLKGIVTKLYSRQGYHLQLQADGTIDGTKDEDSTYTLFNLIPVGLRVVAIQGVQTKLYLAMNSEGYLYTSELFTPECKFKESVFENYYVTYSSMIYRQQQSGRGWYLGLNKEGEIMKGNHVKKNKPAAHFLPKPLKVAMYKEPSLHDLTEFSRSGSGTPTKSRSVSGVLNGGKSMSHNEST
Description: SPR; cell-free; FGF13 with Nav1.7 CTD, no compound. The conditions noted are these: both partners purified.

In the case of `COC(=O)[C@@H](NC(=O)[C@H](CCC(=O)OC(C)(C)C)NC(=O)[C@H](CC(C)C)NC(=O)[C@@H]1CCCN1C(=O)OCc1ccccc1)C(C)C` [PW 164] (Cbz-PLE(OtBu)V-OMe), the “Paw withdrawal latency” value with C57BL/6 mice [1] (Time (h) 0.5) is 6.8 s and 5.5 s (2×) and 2.93 s and 6.4 s and 5.33 s and 6.3 s and 4.8 s and 4.23 s and 4.87 s and 3.47 s and 5.6 s and 4.1 s and 4.4 s and 2.87 s and 8.3 s and 5.93 s and 5 s and 4.2 s and 6.1 s; in the assay on C57BL/6 mice [1] (Time (h) 1), 11.43 s and 10.43 s and 13.57 s and 12.1 s and 12.5 s and 12.33 s and 11.6 s and 11.33 s and 13.2 s and 15.4 s and 16 s and 12.63 s and 16.3 s and 11.83 s and 17.37 s and 20 s and 12.8 s and 12.17 s and 18.37 s and 16.47 s; in the assay on C57BL/6 mice [1] (Time (h) 1.5), 12.6 s and 12.77 s and 10.5 s and 11.3 s and 13.4 s and 7.9 s and 8 s and 9.27 s and 11.73 s and 9.97 s and 16.43 s and 14.37 s and 15.37 s and 12.23 s and 13.13 s and 18.63 s and 15.2 s and 17.17 s and 10.23 s and 9.23 s; in the assay with C57BL/6 mice [1] (Time (h) 2.5) it was 12.63 s and 12.73 s and 10.73 s and 10.97 s and 13.83 s and 8.87 s and 8.63 s and 9.6 s and 15.4 s and 19.5667 s and 15.7667 s and 13.6 s and 14.9333 s (2×) and 14.7333 s and 11.4667 s and 11.1333 s and 10.5667 s and 15.1 s and 13.2 s; in the assay with C57BL/6 mice [1] (Time (h) BN (baseline)), 12.77 s and 12 s and 12.53 s and 10.8 s and 11.1 s and 12.43 s and 10.77 s (2×) and 12.33 s (2×) and 12.47 s (2×) and 14.53 s and 12.9 s and 11.27 s (2×) and 13.5 s and 11.07 s and 12.6 s and 10.67 s.
`CCCCN1CCCCC1C(=O)Nc1c(C)cccc1C` (racemic) [Bup]: the “HVF Mean” value was 52 in the assay with C57BL/6 mice [2] (Time (h) 0); 100 in the assay with C57BL/6 mice [2] (Time (h) 0.5); 6 with C57BL/6 mice [2] (Time (h) 0.75); 58 in the assay on C57BL/6 mice [2] (Time (h) 1); 98 with C57BL/6 mice [2] (Time (h) 1.5); 100 with C57BL/6 mice [2] (Time (h) 2). Moreover, the “HVF Mean” value in the assay on C57BL/6 mice [3] (Time (h) 0) is given as 52; in the assay on C57BL/6 mice [3] (Time (h) 0.5) it was 8; with C57BL/6 mice [3] (Time (h) 1), 58; with C57BL/6 mice [3] (Time (h) 1.5), 54; in the assay with C57BL/6 mice [3] (Time (h) 2) it was 54. Further, the “LVF Mean” value with C57BL/6 mice [2] (Time (h) 0) is reported as 0; with C57BL/6 mice [2] (Time (h) 0.5), 66; in the assay on C57BL/6 mice [2] (Time (h) 0.75), 0; with C57BL/6 mice [2] (Time (h) 1), 0; in the assay with C57BL/6 mice [2] (Time (h) 1.5), 22; in the assay on C57BL/6 mice [2] (Time (h) 2), 52.
In the case of `COc1cc(CNC(=O)CCCC/C=C/C(C)C)ccc1O` [Capsaicin], the “Figure S6C, Mean” value is given as 236.646 in assay [4] (Distance 7.1166 microns); 412.139 in assay [4] (Distance 7.2484 microns); 777.284 in assay [4] (Distance 7.3801 microns); 1294.71 in assay [4] (Distance 7.5119 microns); 1747.86 in assay [4] (Distance 7.6437 microns); 1996.82 in assay [4] (Distance 7.7755 microns). The “Figure S6C, Mean” value in assay [4] (Distance 7.9073 microns) was determined as 2041.85; in assay [4] (Distance 8.0391 microns) it was 2010.31; in assay [4] (Distance 8.1709 microns) it was 1934.86; in assay [4] (Distance 8.3027 microns) it was 1848.17; in assay [4] (Distance 8.4344 microns), 1793.9; in assay [4] (Distance 8.5662 microns) it was 1740.61. The “Figure S6C, Mean” value was 1651.29 in assay [4] (Distance 8.698 microns), 1564.27 in assay [4] (Distance 8.8298 microns), 1524.73 in assay [4] (Distance 8.9616 microns) and 1474.75 in assay [4] (Distance 9.0934 microns).

B1: Nav1.7 CTD (fragment used in surface plasmon resonance) (domain or fragment)
chain: QEDVSATVIQRAYRRYRLRQNVK
modifications: synthetic peptide from supplementary SPR methods (stated as residues 1876-1899, 23 aa); used unconjugated as analyte over immobilized FGF13, and biotinylated (biotin position not stated) when …
Take B1: the Kd in assay [5] is 75 ± 3 nM.

As a reminder, the Kd is a measure of binding affinity in units of concentration.

Source of the values: paper PMC12259270, “Sensory neuron–expressed FGF13 controls nociceptive signaling in diabetic neuropathy models” (The Journal of Clinical Investigation, 2025).
